pIC50, pKi: −log10 of the molar value.
Molecular target: Replicase polyprotein 1ab (Severe acute respiratory syndrome coronavirus, UniProt P0C6X7)
Test: Inhibition Assay
Conditions: pH 7.5
Description: Inhibition assay against SARS-CoV 3CL protease, a fluorometric assay was utilized to determine the inhibition constants of the samples.

Row | SMILES | pIC50 | pKi
1 | O=C(Cn1nnc2ccccc21)c1ccc([N+](=O)[O-])cc1 [Benzotriazole ester, 13] | < 4.30 | –
2 | Nc1ccc(C(=O)Cn2nnc3ccccc32)cc1 [Benzotriazole ester, 15] | < 4.30 | –
3 | Nc1ccc(C(O)Cn2nnc3ccccc32)cc1 (stereo not given) [Benzotriazole ester, 16] | < 4.30 | –
4 | CNc1ccc(C(O)Cn2nnc3ccccc32)cc1 (stereo not given) [Benzotriazole ester, 19] | – | < 4.30
5 | CN(C)c1ccc(C(O)Cn2nnc3ccccc32)cc1 (stereo not given) [Benzotriazole ester, 20] | – | < 4.30

From BindingDB's records for doi:10.1016/j.chembiol.2005.12.008 (Academia Sinica, 2006)
